Assays:
[1] = Cytotoxicity evaluation (Cell Titer 96 AQueous One Solution Cell Proliferation Assay); type: cell-based; settings: human; GS4.1 cells, cellular viability
Method: For cytotoxicity evaluation, GS4.1 cells were treated with compounds as described above and cellular viability was monitored using the Cell Titer 96 AQueous One Solution Cell Proliferation Assay (Promega). CC50 values were determined from the % cytotoxicity versus concentration data with Tecan Magellan software as described above.

HCV NS3-NS4A protease = target: T1, HCV NS3-NS4A protease (Hepatitis C virus genotype 1b, UniProt P26663); experiment: HCV Protease Assay (SensoLyte 620 HCV Protease Assay kit); type: biochemical; settings: 1.2 nM HCV NS3-NS4A protease, 60 min at room temperature, 5% DMSO
T1 construct: made in house
T1 sequence (P26663 1027-1208): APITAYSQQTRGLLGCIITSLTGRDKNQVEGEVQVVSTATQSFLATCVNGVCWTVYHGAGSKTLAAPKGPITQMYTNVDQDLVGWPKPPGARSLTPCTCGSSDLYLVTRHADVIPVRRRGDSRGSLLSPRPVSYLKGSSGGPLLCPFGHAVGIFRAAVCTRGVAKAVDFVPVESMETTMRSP
Method: General procedure: Measurement of the inhibitory effect of compounds on HCV protease activity was performed with the SensoLyte™ 620 HCV Protease Assay kit from AnaSpec, Inc. (San Jose, Calif.) under conditions described by the supplier using 1.2 nM HCV NS3-NS4A protease, which was obtained according to Taremi et al. (Protein Science, 1998, 7, 2143-2149). The compounds were tested at a variety of concentrations in assay buffer containing a final DMSO concentration of 5%. Reactions were allowed to proceed for 60 min at room temperature and fluorescence measurements were recorded with a Tecan Infinity Spectrofluorimeter. The IC50 values were determined from the percent inhibition versus concentration data using a sigmoidal non-linear regression analysis based on four parameters with Tecan Magellan software.

[2] = system: Huh-7 cells containing HCV Con1 subgenomic replicon (GS4.1 cells); experiment: HCV Replicon Assay (NS4A ELISA); type: cell-based; settings: Hepatitis C virus, Huh-7, 72 hr, NS4A protein by ELISA
Method: General procedure: Huh-7 cells containing HCV Con1 subgenomic replicon (GS4.1 cells) were grown in Dulbecco's Modified Eagle Medium (DMEM) supplemented with 10% fetal bovine serum (FBS), 2 mM L-glutamine, 110 mg/L sodium pyruvate, 1× non-essential amino acids, 100 U/mL penicillin-streptomycin, and 0.5 mg/mL G418 (Invitrogen). For dose-response testing, the cells were seeded in 96-well plates at 7.5×10^3 cells/well in a volume of 50 μL, and incubated at 37° C./5% CO2. Three hours after plating, 50 μL of ten 2-fold serial dilutions of compounds (highest concentration, 75 μM) were added, and cell cultures were incubated at 37° C./5% CO2 in the presence of 0.5% DMSO. Alternatively, compounds were tested at a single concentration of 15 μM. In all cases, Huh-7 cells lacking the HCV replicon served as negative control. The cells were incubated in the presence of compounds for 72 hr after which they were monitored for expression of the NS4A protein by enzyme-linked immunosorbent assay (ELISA). For this, the plates were then fixed for 1 min with acetone/methanol (1:1, v/v), washed twice with phosphate-buffered saline (PBS), 0.1% Tween 20, blocked for 1 hr at room temperature with TNE buffer containing 10% FBS and then incubated for 2 hr at 37° C. with the anti-NS4A mouse monoclonal antibody A-236 (ViroGen) diluted in the same buffer. After washing three times with PBS, 0.1% Tween 20, the cells were incubated 1 hr at 37° C. with anti-mouse immunoglobulin G-peroxidase conjugate in TNE, 10% FBS. After washing as described above, the reaction was developed with O-phenylenediamine (Zymed). The reaction was stopped after 30 min with 2 NH2SO4, and absorbance was read at 492 nm using Sunrise Tecan spectrophotometer. EC50 values were determined from the % inhibition versus concentration data using a sigmoidal non-linear regression analysis based on four parameters with Tecan Magellan software. When screening at a single concentration, the results were expressed as % inhibition at 15 μM.

Row | Structure (SMILES) | CC50 [1] [nM] | IC50 (HCV NS3-NS4A protease) [nM] | EC50 [2] [nM]
1 | COc1cc(OC)c2c(O[C@H]3C[C@H]4C(=O)N(C)CCCC/C=C\[C@@H]5C[C@@]5(C(=O)NS(=O)(=O)C5(C)CC5)NC(=O)N4C3)cc(-c3nc(C(C)C)cs3)nc2c1 [Compound 56e, (Z)-(4R,6S,15S,17S)-[17-[5,7-dimethoxy-2-(4-isopropylthiazol-2-yl)quinolin-4-yloxy]-13-N-methyl-2,14-dioxo-1,3,13-triazatricyclo[13.3.0.0]octadec-7-en-4-yl]carbonyl(1-methyl-cyclopropyl)sulfonamide] | > 75000 | < 1000 | 1000 to 10000
2 | COc1ccc2c(O[C@H]3C[C@H]4C(=O)N(C)CCCC/C=C\[C@@H]5C[C@@]5(C(=O)NS(=O)(=O)C5(C)CC5)NC(=O)N4C3)cc(-c3nc(C(C)C)cs3)nc2c1F [Compound 56c, (Z)-(4R,6S,15S,17S)-[17-[8-fluoro-7-methoxy-2-(4-isopropylthiazol-2-yl)quinolin-4-yloxy]-13-N-methyl-2,14-dioxo-1,3,13-triazatricyclo[13.3.0.0]octadec-7-en-4-yl]carbonyl(1-methyl-cyclopropyl)sulfonamide] | > 75000 | < 1000 | < 1000
3 | COc1ccc2c(O[C@H]3C[C@H]4C(=O)N(C)CCCC/C=C\[C@@H]5C[C@@]5(C(=O)NS(=O)(=O)C5(C)CC5)NC(=O)N4C3)cc(-c3nc(C(C)C)cs3)nc2c1 [Compound 56a, (Z)-(4R,6S,15S,17S)-[17-[7-methoxy-2-(4-isopropylthiazol-2-yl)quinolin-4-yloxy]-13-N-methyl-2,14-dioxo-1,3,13-triazatricyclo-[13.3.0.0]octadec-7-en-4-yl]carbonyl(1-methyl-cyclopropyl)sulfonamide] | > 75000 | < 1000 | < 1000
4 | C#CC1(S(=O)(=O)NC(=O)[C@@]23C[C@H]2/C=C\CCCCN(C)C(=O)[C@@H]2C[C@H](Oc4cc(-c5nc(C(C)C)cs5)nc5c(C)c(OC)ccc45)CN2C(=O)N3)CC1 [Compound 83b, (Z)-(4R,6S,15S,17S)-[17-[7-methoxy-8-methyl-2-(4-isopropylthiazol-2-yl)quinolin-4-yloxy]-13-N-methyl-2,14-dioxo-1,3,13-triazatricyclo[13.3.0.0]octadec-7-en-4-yl]carbonyl(1-ethynylcyclopropyl)sulfonamide] | > 75000 | < 1000 | < 1000
5 | COc1ccc2c(O[C@H]3C[C@H]4C(=O)N(C)CCCC/C=C\[C@@H]5C[C@@]5(C(=O)NS(=O)(=O)C5(C)CC5)NC(=O)N4C3)cc(-n3ccc(C(C)C)n3)nc2c1C [Compound 91b, (Z)-(4R,6S,15S,17S)-[17-[8-methyl-7-methoxy-2-(3-isopropyl-1H-pyrazol-1-yl)quinolin-4-yloxy]-13-N-methyl-2,14-dioxo-1,3,13-triazatricyclo[13.3.0.0]octadec-7-ene-4-yl]carbonyl(1-methylcyclopropyl)sulfonamide] | 10000 to 75000 | < 1000 | < 1000
6 | C#Cc1csc(-c2cc(O[C@H]3C[C@H]4C(=O)N(C)CCCC/C=C\[C@@H]5C[C@@]5(C(=O)NS(=O)(=O)C5(C)CC5)NC(=O)N4C3)c3ccc(OC)c(Cl)c3n2)n1 [Compound G2, (Z)-(4R,6S,15S,17S)-[17-[8-chloro-7-methoxy-2-(4-ethynylthiazol-2-yl)quinolin-4-yloxy]-13-N-methyl-2,14-dioxo-1,3,13-triazatricyclo-[13.3.0.0]octadec-7-en-4-yl]carbonyl(1-methyl-cyclopropyl)sulfonamide] | 10000 to 75000 | < 1000 | < 1000
7 | COc1cc(C)c2nc(-c3nc(C(C)C)cs3)cc(O[C@H]3C[C@H]4C(=O)N(C)CCCC/C=C\[C@@H]5C[C@@]5(C(=O)NS(=O)(=O)C5(C)CC5)NC(=O)N4C3)c2c1 [Compound 56f, (Z)-(4R,6S,15S,17S)-[17-[6-methoxy-8-methyl-2-(4-isopropylthiazol-2-yl)quinolin-4-yloxy]-13-N-methyl-2,14-dioxo-1,3,13-triazatricyclo[13.3.0.0]octadec-7-en-4-yl]carbonyl(1-methyl-cyclopropyl)sulfonamide] | > 75000 | < 1000 | < 1000
8 | C#Cc1csc(-c2cc(O[C@H]3C[C@H]4C(=O)N(C)CCCC/C=C\[C@@H]5C[C@@]5(C(=O)NS(=O)(=O)C5CC5)NC(=O)N4C3)c3ccc(OC)c(C)c3n2)n1 [Compound G3, (Z)-(4R,6S,15S,17S)-[17-[7-methoxy-8-methyl-2-(4-ethynylthiazol-2-yl)quinolin-4-yloxy]-13-N-methyl-2,14-dioxo-1,3,13-triazatricyclo-[13.3.0.0]octadec-7-en-4-yl]carbonyl(cyclopropyl)sulfonamide] | 10000 to 75000 | < 1000 | < 1000
9 | COc1ccc2c(O[C@H]3C[C@H]4C(=O)N(C)CCCC/C=C\[C@@H]5C[C@@]5(C(=O)NS(=O)(=O)C5CC5)NC(=O)N4C3)cc(-c3nc(C(F)(F)F)cs3)nc2c1Cl [Compound 69d, (Z)-(4R,6S,15S,17S)-[17-[8-chloro-7-methoxy-2-(4-trifluoromethythiazol-2-yl)quinolin-4-yloxy]-13-N-methyl-2,14-dioxo-1,3,13-triazatricyclo[13.3.0.0]octadec-7-en-4-yl]carbonyl(cyclopropyl)sulfonamide] | 10000 to 75000 | < 1000 | < 1000
10 | COc1ccc2c(O[C@H]3C[C@H]4C(=O)N(C)CCCC/C=C\[C@@H]5C[C@@]5(C(=O)NS(=O)(=O)C5CC5)NC(=O)N4C3)cc(-n3ccc(C(C)C)n3)nc2c1C [Compound 91f, (Z)-(4R,6S,15S,17S)-[17-[8-methyl-7-methoxy-2-(3-isopropyl-1H-pyrazol-1-yl)quinolin-4-yloxy]-13-N-methyl-2,14-dioxo-1,3,13-triazatricyclo[13.3.0.0]octadec-7-ene-4-yl]carbonyl(cyclopropyl)sulfonamide] | > 75000 | < 1000 | < 1000
11 | COc1ccc2c(O[C@H]3C[C@H]4C(=O)N(C)CCCC/C=C\[C@@H]5C[C@@]5(C(=O)NS(=O)(=O)C5CC5)NC(=O)N4C3)cc(-c3nc(C)cs3)nc2c1Cl [AN, (Z)-(4R,6S,15S,17S)-[17-[8-chloro-7-methoxy-2-(4-methylthiazol-4-yl)quinolin-4-yloxy]-13-N-methyl-2,14-dioxo-1,3,13-triazatricyclo-[13.3.0.0]octadec-7-en-4-yl]carbonyl-(cyclopropyl)sulfonamide] | 10000 to 75000 | < 1000 | < 1000
12 | COc1ccc2c(O[C@H]3C[C@H]4C(=O)N(C)CCCC/C=C\[C@@H]5C[C@@]5(C(=O)NS(=O)(=O)C5(C)CC5)NC(=O)N4C3)cc(-n3ccc(C(C)C)n3)nc2c1Cl [Compound 91d, (Z)-(4R,6S,15S,17S)-[17-[8-chloro-7-methoxy-2-(3-isopropyl-1H-pyrazol-1-yl)quinolin-4-yloxy]-13-N-methyl-2,14-dioxo-1,3,13-triazatricyclo[13.3.0.0]octadec-7-ene-4-yl]carbonyl(1-methylcyclopropyl)sulfonamide] | > 75000 | < 1000 | < 1000
13 | COc1ccc2c(O[C@H]3C[C@H]4C(=O)N(C)CCCC/C=C\[C@@H]5C[C@@]5(C(=O)NS(=O)(=O)C5(C)CC5)NC(=O)N4C3)cc(-c3csc(C(F)(F)F)n3)nc2c1Cl [Compound O2, (Z)-(4R,6S,15S,17S)-[17-[8-chloro-7-methoxy-2-(2-trifluoromethylthiazol-4-yl)quinolin-4-yloxy]-13-N-methyl-2,14-dioxo-1,3,13-triazatricyclo-[13.3.0.0]octadec-7-en-4-yl]carbonyl-(1-methylcyclopropyl)sulfonamide] | 10000 to 75000 | < 1000 | < 1000

Source: patent US8003659B2, “Macrocyclic serine protease inhibitors” (Indenix Pharmaceuticals, Inc., priority 2008, dated 2011)
